Several values for one entry are separate records, joined by “and”; a condition that tells them apart may be missing. Equal entries are not always repeated. Activity calls are given as the source filed them. A value given as a limit tells only on which side of the number the result lay.

One assay deals with T1, Aspartyl aminopeptidase (Plasmodium falciparum 3D7, UniProt Q8I2J3).
T1 sequence (Q8I2J3 whole entry): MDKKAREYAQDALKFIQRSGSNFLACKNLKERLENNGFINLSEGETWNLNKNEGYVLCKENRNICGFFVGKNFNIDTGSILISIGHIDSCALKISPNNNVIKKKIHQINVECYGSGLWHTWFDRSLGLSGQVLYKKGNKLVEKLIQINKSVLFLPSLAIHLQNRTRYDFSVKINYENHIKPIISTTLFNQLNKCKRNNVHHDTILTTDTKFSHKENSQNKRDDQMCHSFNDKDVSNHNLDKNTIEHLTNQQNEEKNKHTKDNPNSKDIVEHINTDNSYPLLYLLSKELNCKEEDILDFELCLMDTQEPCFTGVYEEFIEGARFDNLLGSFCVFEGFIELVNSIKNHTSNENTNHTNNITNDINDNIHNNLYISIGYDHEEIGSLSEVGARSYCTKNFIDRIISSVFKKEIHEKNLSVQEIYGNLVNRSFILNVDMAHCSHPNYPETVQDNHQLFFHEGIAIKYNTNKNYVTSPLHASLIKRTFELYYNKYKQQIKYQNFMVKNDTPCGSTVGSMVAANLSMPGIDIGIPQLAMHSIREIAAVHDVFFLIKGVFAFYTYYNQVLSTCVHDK

The next assay concerns the target Procathepsin L (Homo sapiens, UniProt P07711).
A short description of assay [1]: A cytotoxicity screen of small molecule inhibitors of the PhoP region in Salmonella typhi identified in the primary screen. [Related pubchem assays: 1850, 1864, 1985 ]. The class given is functional.
The target in a further assay is T2, Estrogen receptor (Homo sapiens, UniProt P03372).
T2 sequence (P03372 whole entry): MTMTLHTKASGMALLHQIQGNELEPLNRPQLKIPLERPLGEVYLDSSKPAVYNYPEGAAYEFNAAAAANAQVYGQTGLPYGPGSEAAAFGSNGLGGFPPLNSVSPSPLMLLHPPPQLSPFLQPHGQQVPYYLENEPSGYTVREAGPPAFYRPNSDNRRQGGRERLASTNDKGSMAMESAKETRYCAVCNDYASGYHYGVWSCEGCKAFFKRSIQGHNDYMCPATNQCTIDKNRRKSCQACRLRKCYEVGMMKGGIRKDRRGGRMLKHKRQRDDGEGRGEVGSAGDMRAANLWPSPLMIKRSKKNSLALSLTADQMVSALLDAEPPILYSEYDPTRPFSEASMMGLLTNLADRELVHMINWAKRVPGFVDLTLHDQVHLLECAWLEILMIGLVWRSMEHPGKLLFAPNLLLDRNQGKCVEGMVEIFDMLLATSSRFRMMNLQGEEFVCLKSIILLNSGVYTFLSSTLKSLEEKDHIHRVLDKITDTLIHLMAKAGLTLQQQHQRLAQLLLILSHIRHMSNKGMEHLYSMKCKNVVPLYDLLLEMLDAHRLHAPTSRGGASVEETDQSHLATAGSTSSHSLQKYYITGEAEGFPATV
The assay is described as follows: ERα coactivator recruitment enhancers – biochemical, TR-FRET, ERα LBD, dose response (AID 737).

The target in assay [2] is Peroxisome proliferator-activated receptor gamma/Nuclear receptor coactivator 2 (Homo sapiens, UniProt P37231). The assay is classed as functional.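 Note: agonist potency for raising coactivator recruitment to the receptor.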
Sequence of Peroxisome proliferator-activated receptor gamma/Nuclear receptor coactivator 2 (P37231 whole entry): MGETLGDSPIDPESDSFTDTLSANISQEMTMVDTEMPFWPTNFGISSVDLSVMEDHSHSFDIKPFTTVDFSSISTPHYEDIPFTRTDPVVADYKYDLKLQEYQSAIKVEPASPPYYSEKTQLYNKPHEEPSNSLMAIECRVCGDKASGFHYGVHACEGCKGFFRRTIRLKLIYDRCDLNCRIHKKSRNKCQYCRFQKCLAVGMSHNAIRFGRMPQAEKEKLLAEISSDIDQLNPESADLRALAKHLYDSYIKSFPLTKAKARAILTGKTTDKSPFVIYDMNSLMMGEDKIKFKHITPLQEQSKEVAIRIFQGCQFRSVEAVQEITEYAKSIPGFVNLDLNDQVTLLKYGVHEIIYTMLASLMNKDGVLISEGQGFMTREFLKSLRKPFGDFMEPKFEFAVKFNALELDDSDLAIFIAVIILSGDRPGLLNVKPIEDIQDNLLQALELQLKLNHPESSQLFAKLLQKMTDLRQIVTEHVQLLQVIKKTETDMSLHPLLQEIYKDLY
Sequence of Peroxisome proliferator-activated receptor gamma/Nuclear receptor coactivator 2 (Q15596 whole entry, further chain): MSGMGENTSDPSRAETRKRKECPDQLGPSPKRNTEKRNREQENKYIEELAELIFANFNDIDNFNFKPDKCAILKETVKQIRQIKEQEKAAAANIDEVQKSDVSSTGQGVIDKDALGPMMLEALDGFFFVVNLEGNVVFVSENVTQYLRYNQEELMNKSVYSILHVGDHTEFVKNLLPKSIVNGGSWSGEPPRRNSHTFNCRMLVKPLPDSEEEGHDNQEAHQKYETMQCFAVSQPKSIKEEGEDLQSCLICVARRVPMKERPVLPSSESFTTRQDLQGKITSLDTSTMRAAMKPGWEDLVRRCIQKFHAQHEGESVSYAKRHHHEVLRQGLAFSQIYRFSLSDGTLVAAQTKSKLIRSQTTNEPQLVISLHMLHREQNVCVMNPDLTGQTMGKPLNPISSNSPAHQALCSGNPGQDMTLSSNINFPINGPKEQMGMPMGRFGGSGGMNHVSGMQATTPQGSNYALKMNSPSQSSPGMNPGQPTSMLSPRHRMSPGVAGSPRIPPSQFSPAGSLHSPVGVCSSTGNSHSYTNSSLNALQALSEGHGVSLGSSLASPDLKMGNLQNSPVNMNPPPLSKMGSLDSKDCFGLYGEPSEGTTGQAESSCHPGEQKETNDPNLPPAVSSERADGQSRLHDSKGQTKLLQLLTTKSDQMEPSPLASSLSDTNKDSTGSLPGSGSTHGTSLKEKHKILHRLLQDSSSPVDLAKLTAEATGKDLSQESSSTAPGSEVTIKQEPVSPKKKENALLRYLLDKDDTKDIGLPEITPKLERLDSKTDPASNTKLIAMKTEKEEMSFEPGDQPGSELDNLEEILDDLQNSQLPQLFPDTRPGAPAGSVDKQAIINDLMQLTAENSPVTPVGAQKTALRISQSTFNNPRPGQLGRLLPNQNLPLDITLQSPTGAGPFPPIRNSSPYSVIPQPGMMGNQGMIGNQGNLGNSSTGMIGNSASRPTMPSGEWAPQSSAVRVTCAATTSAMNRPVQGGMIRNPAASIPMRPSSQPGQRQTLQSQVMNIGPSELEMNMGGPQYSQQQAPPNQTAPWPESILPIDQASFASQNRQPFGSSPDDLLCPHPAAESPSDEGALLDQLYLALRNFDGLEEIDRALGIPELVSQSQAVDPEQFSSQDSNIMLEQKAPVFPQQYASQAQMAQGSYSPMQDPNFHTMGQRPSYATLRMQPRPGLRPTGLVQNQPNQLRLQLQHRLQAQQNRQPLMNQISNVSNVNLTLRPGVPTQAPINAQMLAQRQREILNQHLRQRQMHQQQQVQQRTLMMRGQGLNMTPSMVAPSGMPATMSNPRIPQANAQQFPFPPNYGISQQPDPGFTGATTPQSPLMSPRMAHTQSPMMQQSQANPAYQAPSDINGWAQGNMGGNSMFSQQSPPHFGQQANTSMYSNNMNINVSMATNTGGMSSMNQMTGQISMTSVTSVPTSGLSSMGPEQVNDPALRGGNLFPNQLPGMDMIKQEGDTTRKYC
Assay [3] concerns the target Peroxisome proliferator-activated receptor gamma/Nuclear receptor coactivator 3 (Homo sapiens, UniProt P37231). The class given is functional.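 Note: agonist potency for raising coactivator recruitment to the receptor.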
Assay [4] deals with Peroxisome proliferator-activated receptor gamma/Nuclear receptor coactivator 1 (Homo sapiens, UniProt P37231). The class given is functional.
The target of assay [5] is Mothers against decapentaplegic homolog 3 (Homo sapiens, UniProt P84022). Nature of the assay: blockers of Smad3 complex formation in lysate – cell lysate, secondary confirmation, chemiluminescent ELISA, HEK293 lysate, dose response (AID 1058). The class given is functional.
Sequence of Mothers against decapentaplegic homolog 3 (P84022 whole entry): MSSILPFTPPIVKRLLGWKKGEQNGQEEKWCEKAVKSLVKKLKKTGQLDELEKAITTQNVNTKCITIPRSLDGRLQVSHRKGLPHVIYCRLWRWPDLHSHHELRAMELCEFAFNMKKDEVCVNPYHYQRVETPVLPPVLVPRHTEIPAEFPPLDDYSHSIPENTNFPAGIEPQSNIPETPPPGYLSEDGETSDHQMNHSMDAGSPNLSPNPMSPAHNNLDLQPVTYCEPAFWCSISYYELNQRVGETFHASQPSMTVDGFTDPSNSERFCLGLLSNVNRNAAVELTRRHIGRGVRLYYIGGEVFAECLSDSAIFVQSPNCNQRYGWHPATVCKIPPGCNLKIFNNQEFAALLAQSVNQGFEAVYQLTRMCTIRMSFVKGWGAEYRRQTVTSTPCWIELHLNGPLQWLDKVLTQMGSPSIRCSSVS
The target in assay [6] is Luciferin 4-monooxygenase (Photinus pyralis, UniProt P08659). The assay is described as follows: inhibition of purified Photinus pyralis luciferase – biochemical, luminescence, dose response (AID 1891).
The nature of assay [7]: Luminescence Cell-Based Dose Confirmation HTS to Identify Inhibitors of Platelet Dense Granule Release. [Related pubchem assays: 1663 (Primary HTS), 1678 (Summary of Project)]. The class given is functional.
The nature of assay [8]: A Cell Based Secondary Assay To Explore Cytotoxicity of Compounds that Sensitize Mycobacterium Tuberculosis to Beta-Lactam Antibiotics. The assay is classed as functional.
For assay [9], the target named is T3, Induced myeloid leukemia cell differentiation protein Mcl-1 (Homo sapiens, UniProt Q07820). The assay is classed as functional.
T3 sequence (Q07820 whole entry): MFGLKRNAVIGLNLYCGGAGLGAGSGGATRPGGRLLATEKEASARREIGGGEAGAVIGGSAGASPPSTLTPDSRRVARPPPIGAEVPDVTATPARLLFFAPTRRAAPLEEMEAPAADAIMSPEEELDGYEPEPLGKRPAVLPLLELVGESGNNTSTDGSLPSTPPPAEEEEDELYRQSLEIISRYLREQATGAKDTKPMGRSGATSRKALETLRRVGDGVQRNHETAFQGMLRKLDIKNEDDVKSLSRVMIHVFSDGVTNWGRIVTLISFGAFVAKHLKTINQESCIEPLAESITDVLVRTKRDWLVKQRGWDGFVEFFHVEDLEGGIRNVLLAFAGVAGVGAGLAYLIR
Assay [10] deals with Bifunctional protein GlmU (Mycobacterium tuberculosis, UniProt P9WMN3). Nature of the assay: Inhibitors of Mycobacterial Glucosamine-1-phosphate acetyl transferase (GlmU). Secondary screen. Details: species or system Mycobacterium tuberculosis H37Rv.
The next assay has as its target T4, Caspase-6 (Homo sapiens, UniProt P55212).
T4 sequence (P55212 whole entry): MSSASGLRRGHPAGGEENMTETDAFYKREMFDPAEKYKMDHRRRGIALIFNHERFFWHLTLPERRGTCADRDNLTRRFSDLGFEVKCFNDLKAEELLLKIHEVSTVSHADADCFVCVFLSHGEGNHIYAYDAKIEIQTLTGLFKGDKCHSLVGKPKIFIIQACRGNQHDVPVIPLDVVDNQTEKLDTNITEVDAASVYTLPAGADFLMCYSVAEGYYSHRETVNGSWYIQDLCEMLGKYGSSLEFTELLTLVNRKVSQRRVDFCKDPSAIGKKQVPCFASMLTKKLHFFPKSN
The assay is described as follows: inhibition of CASP6 peptide cleavage – biochemical, VEID-R110 fluorescence, cherry-pick, dose response (AID 720632).

Another assay addresses T5, Aminopeptidase N (Plasmodium falciparum FcB1/Columbia, UniProt O96935).
T5 sequence (O96935 whole entry): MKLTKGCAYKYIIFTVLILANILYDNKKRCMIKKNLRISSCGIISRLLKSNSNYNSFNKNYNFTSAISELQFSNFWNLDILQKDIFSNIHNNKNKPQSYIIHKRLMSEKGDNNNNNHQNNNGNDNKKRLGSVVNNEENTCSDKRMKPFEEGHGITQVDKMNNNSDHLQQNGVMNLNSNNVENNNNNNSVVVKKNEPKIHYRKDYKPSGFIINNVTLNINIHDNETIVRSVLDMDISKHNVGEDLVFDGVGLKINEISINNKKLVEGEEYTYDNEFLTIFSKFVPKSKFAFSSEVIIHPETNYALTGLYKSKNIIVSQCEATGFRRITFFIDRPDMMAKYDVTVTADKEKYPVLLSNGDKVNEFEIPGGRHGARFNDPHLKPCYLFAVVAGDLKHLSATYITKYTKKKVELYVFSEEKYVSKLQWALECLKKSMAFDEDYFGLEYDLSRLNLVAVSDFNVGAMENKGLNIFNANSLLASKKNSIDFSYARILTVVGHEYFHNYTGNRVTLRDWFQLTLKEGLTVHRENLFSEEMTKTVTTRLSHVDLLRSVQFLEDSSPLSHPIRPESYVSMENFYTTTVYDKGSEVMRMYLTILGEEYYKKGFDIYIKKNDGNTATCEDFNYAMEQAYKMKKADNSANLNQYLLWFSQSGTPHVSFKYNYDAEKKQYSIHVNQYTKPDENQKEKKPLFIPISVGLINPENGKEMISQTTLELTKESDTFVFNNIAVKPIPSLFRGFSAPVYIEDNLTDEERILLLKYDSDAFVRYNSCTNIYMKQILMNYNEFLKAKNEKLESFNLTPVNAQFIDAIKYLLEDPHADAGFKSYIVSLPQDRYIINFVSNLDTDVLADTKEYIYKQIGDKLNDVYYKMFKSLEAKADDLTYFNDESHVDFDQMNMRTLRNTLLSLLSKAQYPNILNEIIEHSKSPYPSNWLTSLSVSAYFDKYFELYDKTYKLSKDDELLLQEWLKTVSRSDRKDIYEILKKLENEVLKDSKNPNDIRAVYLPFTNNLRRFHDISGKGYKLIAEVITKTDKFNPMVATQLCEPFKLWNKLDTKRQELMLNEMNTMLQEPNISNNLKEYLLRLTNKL
Nature of the assay: malaria alanyl aminopeptidase activity blockers – biochemical, fluorogenic H-Leu-NHMec substrate, 1536-well (AID 1445). Details: species or system Plasmodium falciparum 3D7, 3D7.

Assay [11] has as its target DNA (cytosine-5)-methyltransferase 1 (Homo sapiens, UniProt P26358). Nature of the assay: inhibition of DNA methylation by DNMT1 – biochemical, fluorescent molecular beacon, confirmation (AID 602386). The assay is classed as functional.
In assay [12] the target is T3, Induced myeloid leukemia cell differentiation protein Mcl-1. The assay is described as follows: blockers of MCL1 binding to BIM peptide – biochemical, fluorescence polarization, BIM-BH3 peptide, 1536-well, dose response (AID 2217).
Another assay addresses Bcl-2-like protein 1 (Homo sapiens, UniProt Q07817). Nature of the assay: blockers of BCLXL peptide binding – biochemical, fluorescence polarization, 1536-well, selectivity assay for MCL1 inhibitor project, dose response (AID 2218).
In assay [13] the target is T6, Histone-lysine N-methyltransferase NSD2 (Homo sapiens, UniProt O96028).
T6 sequence (O96028 whole entry): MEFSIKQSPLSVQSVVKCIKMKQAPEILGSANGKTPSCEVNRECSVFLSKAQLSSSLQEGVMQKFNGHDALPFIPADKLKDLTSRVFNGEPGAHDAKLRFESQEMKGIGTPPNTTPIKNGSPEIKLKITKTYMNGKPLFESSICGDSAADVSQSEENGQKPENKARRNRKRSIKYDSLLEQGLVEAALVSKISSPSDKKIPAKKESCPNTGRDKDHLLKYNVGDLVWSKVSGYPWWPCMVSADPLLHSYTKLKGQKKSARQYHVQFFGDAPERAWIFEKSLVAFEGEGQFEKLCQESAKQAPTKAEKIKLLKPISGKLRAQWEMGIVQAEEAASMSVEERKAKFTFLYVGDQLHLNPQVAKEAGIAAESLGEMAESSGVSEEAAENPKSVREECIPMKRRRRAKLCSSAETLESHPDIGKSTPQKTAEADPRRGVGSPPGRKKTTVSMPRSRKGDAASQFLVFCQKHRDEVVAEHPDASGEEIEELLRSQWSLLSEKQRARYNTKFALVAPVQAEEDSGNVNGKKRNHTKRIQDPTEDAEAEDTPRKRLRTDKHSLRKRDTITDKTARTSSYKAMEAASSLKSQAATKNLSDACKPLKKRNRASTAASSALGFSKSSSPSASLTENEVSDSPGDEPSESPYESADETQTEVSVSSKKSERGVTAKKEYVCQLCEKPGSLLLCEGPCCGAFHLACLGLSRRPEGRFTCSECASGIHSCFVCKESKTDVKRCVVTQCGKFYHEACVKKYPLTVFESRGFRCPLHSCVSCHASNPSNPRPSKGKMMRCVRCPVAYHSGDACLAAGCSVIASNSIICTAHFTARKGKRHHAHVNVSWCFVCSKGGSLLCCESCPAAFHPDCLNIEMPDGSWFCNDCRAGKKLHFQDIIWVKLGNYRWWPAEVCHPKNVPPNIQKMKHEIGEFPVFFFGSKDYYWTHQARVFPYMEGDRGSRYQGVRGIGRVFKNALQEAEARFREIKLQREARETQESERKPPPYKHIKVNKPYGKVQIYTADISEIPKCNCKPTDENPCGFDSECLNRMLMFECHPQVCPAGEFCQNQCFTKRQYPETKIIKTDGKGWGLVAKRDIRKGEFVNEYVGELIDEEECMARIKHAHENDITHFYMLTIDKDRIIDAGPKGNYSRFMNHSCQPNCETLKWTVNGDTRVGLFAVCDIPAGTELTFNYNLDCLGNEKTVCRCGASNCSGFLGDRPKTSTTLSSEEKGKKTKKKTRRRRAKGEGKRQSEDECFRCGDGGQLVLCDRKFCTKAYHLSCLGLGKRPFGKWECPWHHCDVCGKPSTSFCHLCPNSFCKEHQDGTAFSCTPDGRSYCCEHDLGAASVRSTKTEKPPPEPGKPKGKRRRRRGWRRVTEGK
The class given is biochemical.

Sequence of Peroxisome proliferator-activated receptor gamma/Nuclear receptor coactivator 3 (P37231 whole entry): as the sequence (P37231 whole entry) above
Sequence of Peroxisome proliferator-activated receptor gamma/Nuclear receptor coactivator 3 (Q9Y6Q9 whole entry, further chain): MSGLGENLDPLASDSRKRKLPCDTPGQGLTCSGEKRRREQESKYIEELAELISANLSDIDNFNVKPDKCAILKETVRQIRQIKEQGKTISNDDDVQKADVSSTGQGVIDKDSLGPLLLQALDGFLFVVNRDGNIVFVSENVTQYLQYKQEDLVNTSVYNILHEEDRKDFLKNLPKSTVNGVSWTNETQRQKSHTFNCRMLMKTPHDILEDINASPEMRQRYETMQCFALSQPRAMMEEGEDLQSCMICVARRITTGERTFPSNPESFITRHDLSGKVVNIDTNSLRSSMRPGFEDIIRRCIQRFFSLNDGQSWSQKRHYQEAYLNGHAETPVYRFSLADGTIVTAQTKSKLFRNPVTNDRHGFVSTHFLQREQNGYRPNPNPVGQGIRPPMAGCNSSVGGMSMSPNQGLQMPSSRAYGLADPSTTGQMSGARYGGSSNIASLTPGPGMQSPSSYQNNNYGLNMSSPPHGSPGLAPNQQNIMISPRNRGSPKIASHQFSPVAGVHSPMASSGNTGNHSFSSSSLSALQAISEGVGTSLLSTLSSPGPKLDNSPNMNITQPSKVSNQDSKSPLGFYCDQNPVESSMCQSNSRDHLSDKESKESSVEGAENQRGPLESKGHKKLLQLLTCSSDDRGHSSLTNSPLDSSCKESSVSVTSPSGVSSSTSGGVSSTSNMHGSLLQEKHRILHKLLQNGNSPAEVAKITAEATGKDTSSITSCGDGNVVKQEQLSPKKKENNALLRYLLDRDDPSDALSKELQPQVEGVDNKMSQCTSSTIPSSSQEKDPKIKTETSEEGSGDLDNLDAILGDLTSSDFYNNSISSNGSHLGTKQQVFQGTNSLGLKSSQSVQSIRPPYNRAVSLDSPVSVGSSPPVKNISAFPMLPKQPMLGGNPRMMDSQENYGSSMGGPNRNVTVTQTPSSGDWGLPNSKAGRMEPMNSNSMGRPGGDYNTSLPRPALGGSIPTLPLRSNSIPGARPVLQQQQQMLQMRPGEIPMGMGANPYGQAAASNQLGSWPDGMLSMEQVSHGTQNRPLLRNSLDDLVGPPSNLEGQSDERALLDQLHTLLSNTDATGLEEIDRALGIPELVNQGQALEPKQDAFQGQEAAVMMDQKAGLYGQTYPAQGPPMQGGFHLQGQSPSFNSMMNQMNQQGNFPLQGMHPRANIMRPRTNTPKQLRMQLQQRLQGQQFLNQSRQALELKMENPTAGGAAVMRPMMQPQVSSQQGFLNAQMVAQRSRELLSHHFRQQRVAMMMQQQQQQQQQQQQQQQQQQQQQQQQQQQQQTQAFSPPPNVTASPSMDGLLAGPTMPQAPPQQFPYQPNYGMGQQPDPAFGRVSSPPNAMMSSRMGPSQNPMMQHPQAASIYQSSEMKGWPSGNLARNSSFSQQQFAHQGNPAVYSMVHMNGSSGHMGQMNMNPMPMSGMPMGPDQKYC
Sequence of Procathepsin L (P07711 whole entry): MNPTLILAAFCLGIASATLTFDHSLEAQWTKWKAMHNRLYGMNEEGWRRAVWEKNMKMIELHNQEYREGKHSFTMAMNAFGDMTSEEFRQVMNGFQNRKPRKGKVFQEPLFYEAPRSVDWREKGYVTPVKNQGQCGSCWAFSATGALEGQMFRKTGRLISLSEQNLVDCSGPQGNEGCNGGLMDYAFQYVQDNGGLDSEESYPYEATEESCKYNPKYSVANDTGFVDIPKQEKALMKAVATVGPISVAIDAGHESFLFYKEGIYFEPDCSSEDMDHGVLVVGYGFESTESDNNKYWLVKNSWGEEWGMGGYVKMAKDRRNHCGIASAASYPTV

With `Cc1c(C(=O)Nn2cnnc2)oc2ccccc12`, the IC50 was 0.664 µM (active) on Aspartyl aminopeptidase and > 59.6 µM (not active) against Procathepsin L.

`COC(=O)c1c(-c2cccc(C)c2)csc1N`: in [1], the EC50 was > 50 µM (active).

`CCOC(=O)c1c(C)[nH]c(C)c1C(=O)CSc1nnc(-c2cc(OC)c(OC)c(OC)c2)o1`: the EC50 on Estrogen receptor is 12.5 µM (active).

Turning to `O=C(c1cc2c(s1)-c1ccccc1S(=O)(=O)C2)N1CCN(Cc2ccccc2)CC1`, in [1], the concentration giving a half-maximal response (EC50) is > 50 µM (active).

For the compound `Cc1cc(C)c(C#N)c(SCc2cc3c(cc2Cl)OCO3)n1`, the EC50 in [2], in assay [3] and in assay [4] was > 79.4 µM (not active) throughout.

Regarding `O=C(Nc1ccc([N+](=O)[O-])cc1)Nn1cnnc1`, the results for the concentration for half-maximal inhibition (IC50) on Aspartyl aminopeptidase and against Procathepsin L were 1.03 µM (active) and > 59.6 µM (not active), respectively.

Turning to `COc1ccccc1C(c1cc2c(cc1O)OCO2)N1CCOCC1` (stereo not drawn), the half-inhibitory concentration (IC50) in [5] is 35.3 µM (not active) and < 2.5 µM (not active).

As for `NOC(=O)C1=CC(=C(c2ccc(O)c(C(=O)ON)c2)c2ccc(O)c(C(=O)ON)c2)C=CC1=O`, the half-inhibitory concentration (IC50) in assay [5] is listed as 22.5 µM (not active).

Turning to `O=C(COC(=O)c1sc2ccccc2c1Cl)NC1CCCCC1`, the EC50 in assay [6] is recorded as > 112 µM (not active); in assay [2], > 79.4 µM (not active); in assay [7], > 112 µM (not active); in [3], > 79.4 µM (not active); in assay [4] it was > 79.4 µM (not active).

Turning to `COc1cc(C(=O)NC2CCCCC2)ccc1OCc1ccc(Cl)cc1Cl`, the cytotoxic concentration (CC50) in [8] is 24.7 µM (active).

As for `COc1cccc(-c2cc(C(=O)Nc3cc(C)nn3-c3ccccc3)no2)c1`, the half-maximal effective concentration (EC50) on Estrogen receptor is 12 µM (active).

Regarding `CCOC(=O)c1nn(-c2ccc(F)cc2)c2nc(Nc3ccccc3)cc(=O)n12`, the CC50 in assay [8] was > 40 µM (active).

Consider `O=C(O)c1ccc(-n2cccc2/C=N\NC(=O)c2cc3cc(Br)ccc3o2)cc1`, for which the concentration for half-maximal inhibition (IC50) in assay [9] was 1.72 µM (active); in [10], 66 µM (active); on Aminopeptidase N, 37.1 µM (active); in assay [11] it was 4.36 µM (active); in [12] it was 12.1 µM (not active); at Bcl-2-like protein 1, > 109 µM (not active). The AC50 is 0.801 µM (active) on Caspase-6 and 7.63 µM (active) in assay [13].

(Values after ChEMBL document CHEMBL1201862, “PubChem BioAssay data set” (2004).)
